# According to patent US20230301973A1, “TREATMENT OF DIFFUSE INTRINSIC PONTINE GLIOMA” (priority 2016, published 2023):
# Where two headings read alike, the source gives them in different places.
# What was measured:
# [1] = cited from earlier work; for MTD: clinical
# [2] = system: primary DIPG cell lines; assay: Effect on primary DIPG cell lines / primary tumor astrocytes; type: cell-based
# Excerpt: Maternal embryonic leucine zipper kinase (MELK) is a serine/threonine kinase implicated in many cellular processes involved in embryogenesis and oncogenesis. Overexpression of MELK is a common feature of diffuse intrinsic pontine glioma (DIPG) and related to tumor grade.
# [3] = system: normal astrocytes; assay: Effect on normal astrocytes; type: cell-based; details: 10 nanomolar
# [4] = Transport over the blood-brain barrier, brain-to-plasma ratio; type: in vivo, mouse
compound,measurement,setting,value
CCN(CCCOc1ccc2c(Nc3cc(CC(=O)Nc4cccc(F)c4)n[nH]3)ncnc2c1)CCOP(=O)(O)O [AZD1152],MTB,"[1]; clinical evaluation, dependent on the dosing schedule",200 to 450 mg
C[C@@H](Oc1cc(-c2cnn(C3CCNCC3)c2)cnc1N)c1c(Cl)ccc(F)c1Cl [Crizotinib],MTD,[1],250 mg twice a day
Nc1ncn([C@H]2C[C@H](O)[C@@H](CO)O2)c(=O)n1 [Decitabine],MTD,[1]; over 1-3 days,"1,500-2,000/mg/m^2 over 1-3 days"
Cc1cccc(-c2nn3c(c2-c2ccnc4ccc(C(N)=O)cc24)CCC3)n1 [Galunisertib],MTD,[1]; result in words,Not able to determine MTD due to potential cardiovascular DLT
CC[C@H](Nc1ncnc2[nH]cnc12)c1nc2cccc(F)c2c(=O)n1-c1ccccc1 [Idelalisib],MTD,[1],Not reached up to 350 mg twice a day
"CC(=O)c1cnc2ccc(-c3cc(Cl)c(O)c(Cl)c3)nc2c1NC1CCC(CN(C)C)CC1 (stereo not shown) [OTS167, 1-[6-(3,5-Dichloro-4-hydroxyphenyl)-4-({4-[(dimethylamino)methyl]cyclohexyl}amino)-1,5-naphthyridin-3-yl]ethanone]",Toxicity / apoptosis on primary tumor astrocytes,"[2]; 10 nM, most DIPG tumor cell lines",toxic and induces apoptosis
same,Cell death in primary DIPG cell lines,[2]; low nanomolar concentrations,induces cell death
same,Migration of primary DIPG cell lines,[2]; low nanomolar concentrations,effectively inhibits migration
same,Proliferation of primary DIPG cell lines,[2]; low nanomolar concentrations,reduces proliferation
same,Apoptosis in non-somatic (normal) cells,[3],no apoptosis occurs
same,Growth of normal astrocytes,[3],only slightly slows down the growth
same,Factor of increase of concentration in brain tissue,[4]; co-administering a P-glycoprotein1 / Abcb1a inhibitor,≥ 4
same,Kp,"[4]; mouse, brain and plasma, mouse models (wild type), passive transport, read-out: Brain-to-plasma (B/P) ratio",0.02
same,Absolute concentration reached in the brain,[4]; with pharmaceutically acceptable toxic adverse effects,about 10 nanomolar
CS(=O)(=O)c1ccc(C(=O)Nc2ccc(Cl)c(-c3ccccn3)c2)c(Cl)c1 [Vismodegib],MTD,[1],Not reached up to 540 mg/d
Pembrolizumab,MTD,[1],Not reached up to 10 mg/kg q2w
